Here are results for 5 molecules from paper PMC12413083, “Secondary metabolites isolated from Fernandoa adenophylla (Wall. ex G.Don) steenis as multitarget inhibitors of cholinesterases for the treatment of Alzheimer’s Disease, followed by molecular docking studies” (PLOS One, 2025).

Read-outs that look alike come from different tables or passages of the source.

A word on the IC50: it is the concentration needed to halve the response being measured.

The target in experiment [1] is T1, Electrophorus electricus acetylcholinesterase (eeAChE) (Electrophorus electricus, UniProt O42275).
T1 construct: purchased Sigma-Aldrich C3389
T1 sequence (O42275 24-633): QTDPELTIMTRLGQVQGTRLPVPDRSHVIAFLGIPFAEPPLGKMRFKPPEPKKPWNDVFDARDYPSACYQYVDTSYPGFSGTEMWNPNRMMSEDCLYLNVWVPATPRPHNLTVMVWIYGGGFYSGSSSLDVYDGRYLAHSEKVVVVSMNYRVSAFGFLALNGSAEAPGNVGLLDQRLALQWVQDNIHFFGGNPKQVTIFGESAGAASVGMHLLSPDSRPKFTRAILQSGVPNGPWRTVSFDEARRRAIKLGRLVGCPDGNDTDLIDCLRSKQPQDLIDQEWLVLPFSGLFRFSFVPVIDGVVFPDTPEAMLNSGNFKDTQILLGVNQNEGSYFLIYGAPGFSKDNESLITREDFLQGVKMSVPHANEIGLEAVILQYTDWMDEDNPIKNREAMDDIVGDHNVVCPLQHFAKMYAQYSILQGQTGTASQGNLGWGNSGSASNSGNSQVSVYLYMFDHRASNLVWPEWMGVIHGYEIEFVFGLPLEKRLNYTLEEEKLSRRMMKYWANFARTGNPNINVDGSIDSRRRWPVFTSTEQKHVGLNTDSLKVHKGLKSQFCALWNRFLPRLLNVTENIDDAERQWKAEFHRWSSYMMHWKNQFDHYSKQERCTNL
In words: biochemical. The conditions noted are these: for Selectivity Index (SI): SI = IC50 of BChE/IC50 of AChE. The protocol:
(§1) Enzymes from Electrophorus electricus (eeAChE) (Sigma-Aldrich, Cat. No. C3389) and equine serum (Equus caballus) BuChE (eqBuChE) […]. Stock solutions of the test compounds were prepared in potassium phosphate buffer (0.1 M, pH 8.0). The reaction mixture consisted of Ellman’s reagent (5,5′-dithiobis (2-nitrobenzoic acid), DTNB), enzyme (0.03 U/mL of eeAChE or eqBuChE), and the test compound. Pre-incubation was performed at 30°C for 10 minutes, followed by the addition of 1 mM acetylthiocholine iodide (ATCI) or butyrylthiocholine iodide (BTCI) as substrates. The reaction mixture was further incubated for 15 minutes. […] All assays were conducted in triplicate. IC50 values were calculated by nonlinear regression of compound concentration versus percentage inhibition.
(§2) All experiments were performed in triplicate, and the results are expressed as SEM. IC50 values were determined using nonlinear regression analysis (GraphPad Prism). All statistical analyses were performed using GraphPad Prism version 9.5.1 (GraphPad Software, San Diego, CA, USA).

Experiment [2] addresses T2, equine serum butyrylcholinesterase (eqBuChE) (Equus caballus, UniProt P81908).
T2 construct: equine serum (Equus caballus) BuChE (eqBuChE); purchased Sigma-Aldrich C3389; host or cells: equine serum
In words: biochemical. As to the method: as §1, §2

Setting [3] is: Ellman's method, mean ± SEM, n = 3, read-out: IC50 (μM) ± SEM (eeAChE).
Where [4] appears, read: Ellman's method, mean ± SEM, n = 3, read-out: IC50 (μM) ± SEM eqBuChE.

T2 sequence (P81908 whole entry): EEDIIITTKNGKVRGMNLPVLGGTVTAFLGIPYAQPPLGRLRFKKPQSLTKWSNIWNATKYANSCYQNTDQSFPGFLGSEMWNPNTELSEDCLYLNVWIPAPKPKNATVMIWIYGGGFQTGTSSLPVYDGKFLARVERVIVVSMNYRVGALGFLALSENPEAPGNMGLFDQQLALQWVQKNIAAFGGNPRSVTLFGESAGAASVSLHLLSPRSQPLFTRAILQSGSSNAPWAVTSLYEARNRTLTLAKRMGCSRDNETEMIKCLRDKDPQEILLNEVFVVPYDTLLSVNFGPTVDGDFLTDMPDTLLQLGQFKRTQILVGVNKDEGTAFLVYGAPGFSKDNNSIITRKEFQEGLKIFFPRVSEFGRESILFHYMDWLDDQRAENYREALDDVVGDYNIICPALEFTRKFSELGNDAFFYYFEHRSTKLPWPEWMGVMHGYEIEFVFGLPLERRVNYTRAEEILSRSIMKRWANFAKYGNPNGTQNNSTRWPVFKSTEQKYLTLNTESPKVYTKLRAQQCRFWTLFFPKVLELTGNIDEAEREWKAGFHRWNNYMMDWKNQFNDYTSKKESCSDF

Regarding `CC1(C)C=CC2=C(O1)C(=O)c1ccccc1C2=O` [Dehydro-α-lapachone (4), Dehydro-α-lapachone], the IC50 in experiment [1] (setting [3]) amounted to 2.64 ± 0.08 µM; in experiment [2] (setting [4]) it was 55.6 ± 1.41 µM. Besides, the “Selectivity Index (SI)” value in experiment [1] came to 21.1.
As for `COC(=O)C1(O)c2ccccc2C(=O)C1(O)CC=C(C)C` (stereo not drawn) [Indanone derivative (5)], in experiment [1], the IC50 came to 53.2 ± 1.29 µM and the “Selectivity Index (SI)” value stood at 0.45. In experiment [2], this molecule had an IC50 of 24.2 ± 1.04 µM.
For `CC(C)=CCC1=C(O)C(=O)c2ccccc2C1=O` [Lapachol (1), Lapachol], in that order: 5.04 ± 0.24 µM, 13.6 and 68.3 ± 1.06 µM.
On to `CC(C)=C(C)C1CC2(C)OC3=C(C(=O)c4ccccc4C3=O)C3C2C12C(=O)c1ccccc1C3(O)C2=O` (stereo not drawn) [Peshawaraquinone (3), Peshawaraquinone], for which the half-inhibitory concentration (IC50) came to 0.9 ± 0.04 µM in experiment [1] (setting [3]) and 8.39 ± 0.14 µM in experiment [2] (setting [4]). Further, the “Selectivity Index (SI)” value in experiment [1] was determined as 9.3.
The matching figures for `CC1(C)CCC2=C(O1)C(=O)c1ccccc1C2=O` [α-Lapachone (2), α-Lapachone]: 11 ± 0.97 µM, 39.1 ± 0.97 µM and 3.6.
